Test results from paper PMC11934079, “Structural and Mechanistic Characterization of the Flavin-Dependent Monooxygenase and Oxidase Involved in Sorbicillinoid Biosynthesis” (ACS Chemical Biology, 2025).
Each block holds one compound with its values, some of them ahead of it.

Key:
SorC [1] = target: T1, SorC (Penicillium rubens, UniProt B6HN76); experiment: enzyme kinetics; type: biochemical; details: coenzyme; hydroxylation of sorbicillin
T1 construct: monomer

SorC [2] = target: T1, SorC; experiment: X-ray crystal structure, […] Å; type: binding; details: flavin out conformation; without sorbicillin
SorD [3] = target: T2, SorD (Penicillium rubens, UniProt B6HNK6); experiment: X-ray crystal structure, […] Å; type: binding; details: covalent; attached to His78; without sorbicillin
T2 construct: C-terminal His6 tag, endogenous signal peptide (residues 5-22 partly seen in structure), secreted from Aspergillus niger; N-glycosylated; ~50 kDa theoretical, 61 kDa measured; monomer; FAD covalent at His78

SorC [4] = target: T1, SorC; experiment: microscale thermophoresis; type: binding
SorC [5] = target: T3, SorC (Penicillium rubens, UniProt B6HN76, R201A); experiment: microscale thermophoresis; type: binding
T3 construct: monomer

SorD [6] = target: T2, SorD; experiment: microscale thermophoresis; type: binding

T1 sequence (B6HN76 whole entry): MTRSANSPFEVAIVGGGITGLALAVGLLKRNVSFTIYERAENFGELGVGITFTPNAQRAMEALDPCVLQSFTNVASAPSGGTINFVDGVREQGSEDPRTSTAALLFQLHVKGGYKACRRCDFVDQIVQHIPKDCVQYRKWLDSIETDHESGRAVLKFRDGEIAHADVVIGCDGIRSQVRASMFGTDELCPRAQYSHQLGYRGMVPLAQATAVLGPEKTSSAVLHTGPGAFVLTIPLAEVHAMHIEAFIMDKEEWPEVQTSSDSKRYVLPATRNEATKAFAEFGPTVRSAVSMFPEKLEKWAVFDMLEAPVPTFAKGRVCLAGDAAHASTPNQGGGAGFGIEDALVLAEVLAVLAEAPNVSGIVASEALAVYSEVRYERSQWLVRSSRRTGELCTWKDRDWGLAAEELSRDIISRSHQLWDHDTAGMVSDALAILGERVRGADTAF
T2 sequence (B6HNK6 whole entry, the tested form may be a part): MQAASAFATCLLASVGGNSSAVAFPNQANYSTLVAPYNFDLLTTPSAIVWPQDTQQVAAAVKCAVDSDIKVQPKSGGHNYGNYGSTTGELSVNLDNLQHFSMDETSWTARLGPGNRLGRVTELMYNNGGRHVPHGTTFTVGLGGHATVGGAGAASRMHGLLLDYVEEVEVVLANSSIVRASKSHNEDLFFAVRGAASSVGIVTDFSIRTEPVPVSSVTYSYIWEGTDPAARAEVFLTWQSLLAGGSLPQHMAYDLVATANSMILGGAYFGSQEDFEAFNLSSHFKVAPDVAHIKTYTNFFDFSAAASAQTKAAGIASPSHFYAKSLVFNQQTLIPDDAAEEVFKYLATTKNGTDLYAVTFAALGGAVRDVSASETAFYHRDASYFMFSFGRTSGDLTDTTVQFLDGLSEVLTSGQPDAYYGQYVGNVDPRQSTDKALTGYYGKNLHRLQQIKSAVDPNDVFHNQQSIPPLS
T3 sequence (B6HN76 whole entry R201A): as the sequence (B6HN76 whole entry) above, with R201A counted along it

SMILES: NC(=O)C1=CN([C@@H]2O[C@H](COP(=O)(O)OP(=O)(O)OC[C@H]3O[C@@H](n4cnc5c(N)ncnc54)[C@H](OP(=O)(O)O)[C@@H]3O)[C@@H](O)[C@H]2O)C=CC1 [NADPH]
catalytic efficiency (SorC [1]): both NADH and NADPH were accepted as coenzymes

SMILES: Cc1cc2nc3c(=O)[nH]c(=O)nc-3n(C[C@H](O)[C@H](O)[C@H](O)COP(=O)(O)OP(=O)(O)OC[C@H]3O[C@@H](n4cnc5c(N)ncnc54)[C@H](O)[C@@H]3O)c2cc1C [FAD]
X-ray crystal structure, 1.4 Å (SorC [2]): SorC without sorbicillin shows that the oxidized flavin is already in the out conformation
X-ray crystal structure, 1.55 Å (SorD [3]): SorD, where the FAD is covalently attached to residue His78

SMILES: NC(=O)C1=CN([C@@H]2O[C@H](COP(=O)(O)OP(=O)(O)OC[C@H]3O[C@@H](n4cnc5c(N)ncnc54)[C@H](O)[C@@H]3O)[C@@H](O)[C@H]2O)C=CC1 [NADH]
catalytic efficiency (SorC [1]): both NADH and NADPH were accepted as coenzymes, with NADH having a higher overall catalytic efficiency

Kd (SorC [4]): 940 ± 93 nM
Kd (SorC [5]): 12600 ± 9700 nM
Kd (SorD [6]): 1200 ± 1600 nM
SMILES: C/C=C/C=C/C(=O)c1cc(C)c(O)c(C)c1O [compound 1, sorbicillin]
